Experimental data reported in paper PMC8264504, “Identification of Koumine as a Translocator Protein 18 kDa Positive Allosteric Modulator for the Treatment of Inflammatory and Neuropathic Pain” (Frontiers in Pharmacology, 2021).
Where two headings read alike, the source gives them in different places.

What was measured:
[1] = molecular target: T1, TSPO from rat cerebral cortex (Rattus norvegicus, UniProt P16257); experiment: 3H-PK11195 equilibrium binding in presence of koumine
T1 construct: from tissue; host or cells: rat (SD) cerebral cortex, crude mitochondrial/membrane pellet
T1 sequence (P16257 whole entry): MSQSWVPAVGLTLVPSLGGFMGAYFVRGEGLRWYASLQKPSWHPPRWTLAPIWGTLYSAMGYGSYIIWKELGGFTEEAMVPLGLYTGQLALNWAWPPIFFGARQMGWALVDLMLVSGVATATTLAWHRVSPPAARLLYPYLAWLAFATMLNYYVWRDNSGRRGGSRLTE
Method: (§1) Briefly, male SD rats (240 ± 10 g) were killed by decapitation, and the cerebral cortices were dissected. The tissues were homogenized in 10 volumes (ml/g) of 50 mM Tris HCl buffer containing 0.32 M sucrose (pH 7.4). The homogenates were centrifuged at 1,000 g for 10 min at 4°C. The resulting pellets were discarded, and the supernatants were centrifuged at 9,000 g for 15 min. The pellets were resuspended in 10 volumes of Tris HCl buffer containing 0.32 M sucrose (pH 7.4) and centrifuged at 13,000 g for 30 min, then resuspended in 10 volumes of Tris HCl buffer and centrifuged again at 13,000 g for 30 min. The final pellets were suspended in Tris HCl buffer and used in the binding assays. Protein concentrations were measured using the BCA Protein Assay Kit (ThermoFisher Scientific) according to the manufacturer’s instructions.
After incubation at 4°C for 2 h, the reaction was terminated by the addition of ice-cold 50 mM Tris HCl buffer (pH 7.4) followed by vacuum filtration through Filtermat A glass microfiber filters (pretreated with 0.2% polyethylenimine) using a Brandel cell harvester. The filters were washed rapidly, and radioactivity was determined by liquid scintillation spectrometry.

[2] = test system: TSPO from the rat cerebral cortex; design: method as in Jin, 2014; details: previous competitive binding assay; ref Jin, 2014; cited from earlier work
[3] = molecular target: T1, TSPO from rat cerebral cortex; experiment: 3H-PK11195 dissociation kinetics; assay type: binding
Method: as §1
Then, samples were filtered through Filtermat A glass microfiber filters (pretreated with 0.2% polyethylenimine) using a Brandel cell harvester, and the radioactivities were measured at the indicated time points.

[4] = test system: formalin-induced inflammatory pain model; experiment: Formalin test; assay type: in vivo, mice; details: for phase one nociceptive response: given alone, s.c.
Method: The formalin test was assessed as described by Dubuisson and Dennis ([Dubuisson and Dennis, 1977]) with minor modifications. Briefly, mice were allowed to acclimate for at least 30 min in the transparent plastic box before formalin injection. Each animal was injected with 10 μl of 5% formalin into the dorsal surface of the right hindpaw. Mice were then observed at 0–5 min (phase one) and at 11–60 min (phase two) after formalin, and the amount of time spent licking or biting the injected paw was recorded as the nociceptive response. Ro5-4864 or vehicle (5% DMSO) was administered s. c. 30 min prior to the formalin injection, and koumine was administered s. c. 40 min before formalin injection. To determine whether koumine potentiated the anti-inflammatory pain effects of Ro5-4864, koumine or its vehicle was injected 10 min before Ro5-4864 injection. Ro5-4864 was dissolved in DMSO and diluted in sterile physiological saline, and the final concentration of DMSO was 5%. Koumine was dissolved in sterile physiological saline directly. Animals were randomized for treatment and behavioral test were performed in a blinded manner.

[5] = test system: rat C6 glioma cells; experiment: Pregnenolone production; assay type: cell-based; details: for EC50: read-out: EC50, pregnenolone production
[6] = molecular target: TSPO; design: method as in Awad and Gavish, 1987; Verma et al., 1987; details: radioligand binding experiment results from literatures, ref Awad and Gavish, 1987, Verma et al.; cited from earlier work

Structure (SMILES) | effect on binding of 0.1 nM 3H-PK11195 ([1]; 10^−10 M and 10^−6 M koumine only) | effect on binding of 0.1 nM 3H-PK11195 ([1]; all concentrations of koumine, 10^−12–10^−3 M, not dose dependent) | effect on binding of 3H-PK11195 with TSPO [2] | dissociation rate of 3H-PK11195 relative to vehicle group ([3]; in presence of 10^−6 M koumine) | dissociation rate of 3H-PK11195 relative to vehicle group ([3]; in presence of 10^−10 M koumine) | modulation of Ro5-4864-mediated analgesic effect, phase two ([4]; 0.4 mg/kg koumine s.c. 10 min before 0.00016–0.02 mg/kg Ro5-4864 s.c.) | modulation of Ro5-4864-mediated analgesic response, first phase ([4]; 0.4 mg/kg koumine s.c. 10 min before Ro5-4864) | phase one nociceptive response [4] | significant inhibition of second-phase nociceptive response ([4]; koumine alone 0.08 and 0.4 mg/kg s.c.) | second-phase nociceptive response ([4]; koumine alone 2.0 and 10 mg/kg s.c. 40 min before formalin) | EC50 ([5]; Rattus norvegicus, C6 glioma, 2 h) | Emax ([5]; Rattus norvegicus, C6 glioma, 2 h, read-out: Emax, pregnenolone production) | modulation of pregnenolone production activity ([5]; koumine with an EC20 concentration of PK11195 (∼27 μM)) | modulation of pregnenolone production activity ([5]; koumine with an EC20 concentration of Ro5-4864 (∼11 μM)) | Kd [6] | phase two nociceptive response ([4]; Ro5-4864 alone 0.00016–0.5 mg/kg s.c. 30 min before formalin) | EC20 concentration, pregnenolone production [5] | increase in pregnenolone production [5] | EC50 [5]
C=C[C@@]12CN(C)[C@H]3C[C@]14C(=Nc1ccccc14)[C@H]1C[C@@H]2[C@@H]3CO1 [koumine] | significantly increased the binding | tended to increase the binding | significantly increased the binding | 72% | 81% | significantly augment | did not increase | ineffective | not | significantly inhibited the second-phase nociceptive response | 270 µM | 33% | did not significantly increase | did not significantly increase |  |  |  |  | 
CN1C(=O)CN=C(c2ccc(Cl)cc2)c2cc(Cl)ccc21 [Ro5-4864, reference compound] |  |  |  |  |  |  |  | produced an antinociceptive effect |  |  |  |  |  |  | 0.0073 ± 0.0008 µM | produced a dose-dependent antinociceptive effect | ~11 µM | approximately 50% | 29 µM
